Assay results from ChEMBL document CHEMBL1201862, “PubChem BioAssay data set” (2004).
The source made the active and inactive calls.

Experiments:
[1] = biological target: G-protein coupled receptor 55 (Homo sapiens, UniProt Q9Y2T6); test: inhibition of LPI-stimulated GPR55 beta-arrestin translocation – imaging, U2OS, beta-arrestin-GFP, LPI agonist, primary screen (AID 2013); assay type: functional;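 further: antagonist potency measured as reduced agonist-driven arrestin aggregation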
[2] = biological target: DNA dC->dU-editing enzyme APOBEC-3A (Homo sapiens, UniProt P31941); test: Dose Response confirmation of small molecule APOBEC3A DNA Deaminase Inhibitors via a fluorescence-based single-stranded DNA deaminase assay. [Related pubchem assays (depositor defined):AID493011, AID493024]; assay type: functional
DNA dC->dU-editing enzyme APOBEC-3A, sequence (P31941 whole entry): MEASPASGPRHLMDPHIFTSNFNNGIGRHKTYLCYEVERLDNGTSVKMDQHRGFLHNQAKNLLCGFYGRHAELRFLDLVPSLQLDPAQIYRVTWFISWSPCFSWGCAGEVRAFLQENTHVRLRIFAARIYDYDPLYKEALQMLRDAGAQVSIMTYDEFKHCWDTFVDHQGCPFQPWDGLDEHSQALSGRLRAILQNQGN

[3] = biological target: DNA dC->dU-editing enzyme APOBEC-3G (Homo sapiens, UniProt Q9HC16); assay type: functional;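 further: Dose-response counterscreen measuring inhibition of APOBEC3G DNA deaminase activity, run while confirming APOBEC3A inhibitors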
DNA dC->dU-editing enzyme APOBEC-3G, sequence (Q9HC16 whole entry): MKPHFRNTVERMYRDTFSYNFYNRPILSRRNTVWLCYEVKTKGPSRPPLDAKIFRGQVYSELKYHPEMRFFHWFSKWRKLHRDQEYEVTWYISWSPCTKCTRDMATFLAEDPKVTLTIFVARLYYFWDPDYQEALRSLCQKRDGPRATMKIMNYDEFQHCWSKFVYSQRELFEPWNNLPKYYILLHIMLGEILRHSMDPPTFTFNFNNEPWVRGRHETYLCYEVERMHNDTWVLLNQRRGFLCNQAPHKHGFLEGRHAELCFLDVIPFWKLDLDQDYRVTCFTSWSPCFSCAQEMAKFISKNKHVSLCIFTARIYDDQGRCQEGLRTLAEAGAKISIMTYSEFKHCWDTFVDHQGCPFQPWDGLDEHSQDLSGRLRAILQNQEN

Trypsin = Trypsin (Sus scrofa, UniProt P00761); test: trypsin protease activity blockade – biochemical, quenched peptide fluorescence, cherry-pick, selectivity assay for Rce1 protease inhibitor project, dose response (AID 488789)
Trypsin, sequence (P00761 whole entry): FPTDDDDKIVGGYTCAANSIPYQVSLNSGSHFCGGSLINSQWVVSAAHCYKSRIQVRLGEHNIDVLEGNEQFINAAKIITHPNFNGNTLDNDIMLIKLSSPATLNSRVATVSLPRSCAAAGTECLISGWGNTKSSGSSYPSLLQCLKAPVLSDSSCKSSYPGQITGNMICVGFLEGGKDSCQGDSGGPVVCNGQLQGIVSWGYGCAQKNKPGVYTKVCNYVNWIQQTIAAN

CAAX prenyl protease 2 = biological target: T1, CAAX prenyl protease 2 (Saccharomyces cerevisiae S288c, UniProt Q03530); assay type: biochemical
T1 sequence (Q03530 whole entry): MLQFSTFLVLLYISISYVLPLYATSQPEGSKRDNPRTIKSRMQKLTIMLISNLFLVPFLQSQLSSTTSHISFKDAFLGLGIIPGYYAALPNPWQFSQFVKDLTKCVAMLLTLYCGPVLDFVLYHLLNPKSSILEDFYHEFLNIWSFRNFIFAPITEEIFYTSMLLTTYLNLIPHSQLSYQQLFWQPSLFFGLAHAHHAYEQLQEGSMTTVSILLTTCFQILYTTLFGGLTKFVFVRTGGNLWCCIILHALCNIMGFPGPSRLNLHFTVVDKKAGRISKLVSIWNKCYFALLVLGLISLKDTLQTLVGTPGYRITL

X-box-binding protein 1 = X-box-binding protein 1 (Homo sapiens, UniProt P17861); assay type: functional, Cricetulus griseus;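 further: confirmatory dose-response counter-screen serving a CHOP assay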
X-box-binding protein 1, sequence (P17861 whole entry): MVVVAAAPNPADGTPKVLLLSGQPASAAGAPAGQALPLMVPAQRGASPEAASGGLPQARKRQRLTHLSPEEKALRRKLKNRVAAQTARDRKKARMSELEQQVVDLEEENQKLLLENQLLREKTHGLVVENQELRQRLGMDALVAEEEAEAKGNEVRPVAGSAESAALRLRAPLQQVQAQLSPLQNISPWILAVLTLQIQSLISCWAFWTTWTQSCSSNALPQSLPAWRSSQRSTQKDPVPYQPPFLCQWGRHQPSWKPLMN

[4] = biological target: G-protein coupled receptor 35 (Homo sapiens, UniProt Q9HC97); test: inhibition of zaprinast-stimulated GPR35 beta-arrestin translocation – imaging, U2OS, beta-arrestin-GFP, zaprinast agonist, primary screen (AID 2058); assay type: functional;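 further: antagonist potency meaning inhibition of agonist-induced arrestin redistribution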
Genome polyprotein = Genome polyprotein (dengue virus type 2, UniProt P29990); test: flavivirus cap methylation enzyme inhibition – biochemical, confirmation dose response, primary screen (AID 588689); assay type: functional
[5] = biological target: T2, Tyrosine-protein phosphatase non-receptor type 7 (Homo sapiens, UniProt P35236); test: HePTP tyrosine phosphatase activity blockers – biochemical, absorbance, leukemia target, primary screen (AID 521); assay type: functional
T2 sequence (P35236 whole entry): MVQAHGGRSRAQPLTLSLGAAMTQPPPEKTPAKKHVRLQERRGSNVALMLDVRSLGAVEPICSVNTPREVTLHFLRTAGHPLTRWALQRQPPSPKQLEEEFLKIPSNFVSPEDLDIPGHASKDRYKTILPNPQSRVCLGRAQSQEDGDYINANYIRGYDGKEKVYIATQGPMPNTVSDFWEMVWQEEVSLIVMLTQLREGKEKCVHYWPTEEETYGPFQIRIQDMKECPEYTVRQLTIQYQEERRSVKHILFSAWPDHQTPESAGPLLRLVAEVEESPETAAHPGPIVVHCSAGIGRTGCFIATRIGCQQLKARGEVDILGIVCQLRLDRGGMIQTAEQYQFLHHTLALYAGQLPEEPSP

Bcl-2-like protein 10 = biological target: T3, Bcl-2-like protein 10 (Homo sapiens, UniProt Q9HD36); test: Bcl-B/TR3 peptide binding disruption – biochemical, fluorescence polarization, FITC-TR3 peptide, selectivity assay for Bfl-1 inhibitor project, primary screen (AID 748);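 further: fluorescence polarization from a fluorescein-labelled TR3 peptide binding purified Bcl-B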
T3 sequence (Q9HD36 whole entry): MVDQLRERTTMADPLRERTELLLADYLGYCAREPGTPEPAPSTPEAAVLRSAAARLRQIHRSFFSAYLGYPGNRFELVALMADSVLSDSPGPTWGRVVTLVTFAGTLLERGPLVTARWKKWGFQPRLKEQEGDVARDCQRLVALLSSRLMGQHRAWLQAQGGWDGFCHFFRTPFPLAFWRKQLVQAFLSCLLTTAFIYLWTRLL

[6] = biological target: Induced myeloid leukemia cell differentiation protein Mcl-1 (Homo sapiens, UniProt Q07820); test: blockers of MCL1 binding to BIM peptide – biochemical, fluorescence polarization, BIM-BH3 peptide, 1536-well, dose response (AID 2217)
Bcl-2-like protein 1 = Bcl-2-like protein 1 (Homo sapiens, UniProt Q07817); test: blockers of BCLXL peptide binding – biochemical, fluorescence polarization, 1536-well, selectivity assay for MCL1 inhibitor project, dose response (AID 2218)
Bcl-2-like protein 1, sequence (Q07817 whole entry): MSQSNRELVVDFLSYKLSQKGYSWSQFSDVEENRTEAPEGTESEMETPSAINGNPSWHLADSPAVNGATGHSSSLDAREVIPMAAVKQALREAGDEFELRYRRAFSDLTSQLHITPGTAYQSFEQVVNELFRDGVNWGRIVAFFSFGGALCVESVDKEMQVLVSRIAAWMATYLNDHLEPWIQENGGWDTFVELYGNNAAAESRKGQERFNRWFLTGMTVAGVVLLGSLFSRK

[7] = biological target: T4, Voltage-gated N-type calcium channel alpha-1B subunit/Amyloid beta A4 precursor protein-binding family A member 1 (Homo sapiens, UniProt Q00975+Q02410); assay type: protein assay
T4 sequence (Q00975 whole entry): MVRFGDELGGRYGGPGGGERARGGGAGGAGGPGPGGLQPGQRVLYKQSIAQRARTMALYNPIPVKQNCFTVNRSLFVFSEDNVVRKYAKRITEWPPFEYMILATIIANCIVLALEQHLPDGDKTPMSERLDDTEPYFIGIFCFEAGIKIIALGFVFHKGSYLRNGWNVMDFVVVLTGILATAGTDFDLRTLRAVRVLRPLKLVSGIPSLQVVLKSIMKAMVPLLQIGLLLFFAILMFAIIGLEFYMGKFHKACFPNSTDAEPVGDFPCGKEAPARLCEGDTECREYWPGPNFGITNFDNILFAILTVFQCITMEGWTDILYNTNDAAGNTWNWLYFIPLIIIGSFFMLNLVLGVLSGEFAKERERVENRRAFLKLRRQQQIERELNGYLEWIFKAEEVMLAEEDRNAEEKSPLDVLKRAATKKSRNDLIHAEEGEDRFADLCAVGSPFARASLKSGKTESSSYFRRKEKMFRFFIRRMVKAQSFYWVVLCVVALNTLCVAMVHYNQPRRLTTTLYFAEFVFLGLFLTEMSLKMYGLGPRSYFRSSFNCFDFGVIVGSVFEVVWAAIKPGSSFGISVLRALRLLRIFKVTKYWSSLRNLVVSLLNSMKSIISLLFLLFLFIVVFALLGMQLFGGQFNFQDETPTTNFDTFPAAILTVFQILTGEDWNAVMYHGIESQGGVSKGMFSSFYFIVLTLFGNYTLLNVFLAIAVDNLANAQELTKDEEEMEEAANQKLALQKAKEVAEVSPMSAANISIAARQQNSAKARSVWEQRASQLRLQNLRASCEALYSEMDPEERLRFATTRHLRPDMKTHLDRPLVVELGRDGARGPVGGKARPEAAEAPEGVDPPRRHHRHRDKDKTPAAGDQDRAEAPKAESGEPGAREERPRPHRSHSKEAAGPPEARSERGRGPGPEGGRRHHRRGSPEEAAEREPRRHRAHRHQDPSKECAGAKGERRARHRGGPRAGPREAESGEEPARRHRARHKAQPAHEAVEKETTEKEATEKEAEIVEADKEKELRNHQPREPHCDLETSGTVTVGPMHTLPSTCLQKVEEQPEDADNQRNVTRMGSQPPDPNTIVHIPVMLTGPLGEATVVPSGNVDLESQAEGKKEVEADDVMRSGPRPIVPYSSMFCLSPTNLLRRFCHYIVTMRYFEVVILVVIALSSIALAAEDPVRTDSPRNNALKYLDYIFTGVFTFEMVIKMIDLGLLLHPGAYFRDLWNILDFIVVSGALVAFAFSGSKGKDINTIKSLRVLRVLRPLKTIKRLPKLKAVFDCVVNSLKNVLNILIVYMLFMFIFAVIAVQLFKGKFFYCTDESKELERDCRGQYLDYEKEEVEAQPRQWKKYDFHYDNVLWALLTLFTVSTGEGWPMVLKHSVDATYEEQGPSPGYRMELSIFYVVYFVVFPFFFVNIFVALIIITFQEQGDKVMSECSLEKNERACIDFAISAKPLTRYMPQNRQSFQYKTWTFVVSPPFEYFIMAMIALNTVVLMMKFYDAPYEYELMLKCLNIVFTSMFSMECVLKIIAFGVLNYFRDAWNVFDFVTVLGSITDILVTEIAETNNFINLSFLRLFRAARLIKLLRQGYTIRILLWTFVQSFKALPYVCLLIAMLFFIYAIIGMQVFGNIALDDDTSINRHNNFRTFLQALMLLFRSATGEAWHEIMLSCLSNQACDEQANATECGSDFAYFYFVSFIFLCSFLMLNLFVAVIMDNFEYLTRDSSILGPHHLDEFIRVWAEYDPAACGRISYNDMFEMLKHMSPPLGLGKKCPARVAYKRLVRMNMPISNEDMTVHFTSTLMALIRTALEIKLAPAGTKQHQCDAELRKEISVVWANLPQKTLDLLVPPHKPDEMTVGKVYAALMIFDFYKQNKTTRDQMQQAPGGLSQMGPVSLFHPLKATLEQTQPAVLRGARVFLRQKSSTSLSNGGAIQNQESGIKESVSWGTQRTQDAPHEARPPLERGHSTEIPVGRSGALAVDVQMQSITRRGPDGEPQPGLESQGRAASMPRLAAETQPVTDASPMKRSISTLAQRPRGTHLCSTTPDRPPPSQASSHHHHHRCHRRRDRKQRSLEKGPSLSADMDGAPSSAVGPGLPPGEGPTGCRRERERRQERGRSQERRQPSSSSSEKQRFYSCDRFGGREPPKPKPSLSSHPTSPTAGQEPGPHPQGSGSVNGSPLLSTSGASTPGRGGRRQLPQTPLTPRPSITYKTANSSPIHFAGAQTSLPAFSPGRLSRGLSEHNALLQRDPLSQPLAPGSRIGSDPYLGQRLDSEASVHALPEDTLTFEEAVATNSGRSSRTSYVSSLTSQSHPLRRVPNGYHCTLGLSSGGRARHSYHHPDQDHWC
T4 sequence (Q02410 whole entry): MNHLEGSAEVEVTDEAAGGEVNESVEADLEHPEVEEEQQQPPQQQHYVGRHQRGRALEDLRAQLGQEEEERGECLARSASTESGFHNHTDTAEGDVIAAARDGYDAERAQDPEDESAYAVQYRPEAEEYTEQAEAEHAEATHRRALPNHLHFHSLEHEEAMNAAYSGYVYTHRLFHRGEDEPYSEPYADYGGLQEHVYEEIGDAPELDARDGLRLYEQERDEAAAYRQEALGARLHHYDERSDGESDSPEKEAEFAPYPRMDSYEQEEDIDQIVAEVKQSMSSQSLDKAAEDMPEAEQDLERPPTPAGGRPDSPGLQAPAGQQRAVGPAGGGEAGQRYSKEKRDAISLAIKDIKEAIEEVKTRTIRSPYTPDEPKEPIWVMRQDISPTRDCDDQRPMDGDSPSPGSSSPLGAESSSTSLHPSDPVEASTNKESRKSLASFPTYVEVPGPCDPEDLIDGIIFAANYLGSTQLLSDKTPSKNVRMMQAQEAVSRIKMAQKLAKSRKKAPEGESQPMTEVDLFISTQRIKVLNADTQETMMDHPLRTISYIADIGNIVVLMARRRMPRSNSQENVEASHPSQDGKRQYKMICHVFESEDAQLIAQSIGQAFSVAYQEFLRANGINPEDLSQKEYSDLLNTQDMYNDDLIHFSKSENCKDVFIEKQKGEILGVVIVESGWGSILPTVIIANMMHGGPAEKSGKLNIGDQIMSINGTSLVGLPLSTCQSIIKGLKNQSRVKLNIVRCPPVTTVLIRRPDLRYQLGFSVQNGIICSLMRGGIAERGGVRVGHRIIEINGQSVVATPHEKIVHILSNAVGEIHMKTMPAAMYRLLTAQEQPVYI

[8] = biological target: T4, Voltage-gated N-type calcium channel alpha-1B subunit/Amyloid beta A4 precursor protein-binding family A member 1; assay type: protein assay; remark: listed apart in the source
[9] = biological target: T4, Voltage-gated N-type calcium channel alpha-1B subunit/Amyloid beta A4 precursor protein-binding family A member 1; test: disruptors of Mint-PDZ/N-type channel peptide interaction – biochemical, HTRF, set 2, SAR follow-up (AID 434980); assay type: functional
[10] = biological target: T4, Voltage-gated N-type calcium channel alpha-1B subunit/Amyloid beta A4 precursor protein-binding family A member 1; test: disruptors of Mint-PDZ/N-type channel peptide interaction – biochemical, HTRF, SAR follow-up (AID 2489); assay type: functional

G-protein coupled receptor 55, sequence (Q9Y2T6 whole entry): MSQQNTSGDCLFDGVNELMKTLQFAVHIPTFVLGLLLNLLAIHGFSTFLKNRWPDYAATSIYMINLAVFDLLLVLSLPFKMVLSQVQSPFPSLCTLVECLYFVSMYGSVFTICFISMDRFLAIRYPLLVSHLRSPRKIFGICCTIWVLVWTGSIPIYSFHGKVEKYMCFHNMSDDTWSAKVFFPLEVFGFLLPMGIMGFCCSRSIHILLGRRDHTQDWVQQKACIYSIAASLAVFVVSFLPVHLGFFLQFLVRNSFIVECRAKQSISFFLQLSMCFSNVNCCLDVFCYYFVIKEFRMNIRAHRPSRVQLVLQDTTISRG

For COC(=O)C1=C(C)N(Cc2ccccc2)C(NCCc2cccnc2)=N[C@H]1c1ccccc1, the IC50 [1] was 1.08 µM (active), the IC50 [2] was 2.69 µM (active) and the IC50 [3] was 4.62 µM (active).

For O=C(COc1ccc2ccc(=O)oc2c1)NCCc1c[nH]c2ccc(F)cc12, the AC50 (Trypsin) was 9.56 µM (active) and the AC50 (CAAX prenyl protease 2) was 9.47 µM (active).

In the case of O=C(Nc1ccccc1C(F)(F)F)c1cc(-c2ccc(O)cc2)on1, the “Absolute IC50 (XBP1)” value (X-box-binding protein 1) was 10 µM.

In the case of O=C(O)COc1ccc(/C=C/C(=O)c2ccc(C3CCCCC3)cc2)cc1, the IC50 [4] was 2.16 µM (active) and the IC50 (Genome polyprotein) was 47.7 µM (active).

CCn1c(SC(C)C(=O)O)nc2sc3c(c2c1=O)CCC3 (stereo unspecified) was tested, and the IC50 [5] was 1.69 µM (active), the IC50 (Bcl-2-like protein 10) was 7.65 µM (active) and the IC50 [6] was 16.8 µM (not active). The IC50 (Bcl-2-like protein 1) was 90.1 µM (not active).

With CC(=O)Oc1ccc(N2C(=O)C3C(C2=O)C2(C)C=CC3(C)O2)cc1 (stereo unspecified) the IC50 [7] was 5.05 µM (active), the IC50 [8] was 1.93 µM (active) and the IC50 [9] was 6.39 µM (active). The IC50 [10] was 7.82 µM (active).
